From patent publication US20240390349A1, “DOSING REGIMEN OF CAPSID INHIBITOR” (priority 2023, published 2024)
Entries after “also recorded” stand apart in the source; their conditions may differ.

Assays:
HIV-1 = assay: Efficacy of oral bridging (HIV-1 RNA, CD4), CAPELLA; assay type: in vivo, human; conditions: for Percentage who maintained HIV-1 RNA<50 copies/mL: OB baseline HIV-1 RNA<50, Missing=Failure; for Proportion of participants with HIV-1 RNA<50 copies/mL: suppressed at OB baseline
Source text: This Example describes analysis of oral LEN bridging administered during a Phase 2/3, global, randomized, placebo-controlled multicenter study of lenacapavir (LEN) together with an optimized background regimen (OBR) in people with HIV (PWH) with multidrug resistance (MDR) (to […] antiretroviral (ARV) medications from each of ≥3 of the 4 main classes) and who are failing their current regimen (defined as plasma HIV-1 RNA≥400 copies/mL).
This Example describes a Phase 2/3, global, randomized, placebo-controlled multicenter study of LEN together with an OBR in PWH with MDR (to ≥2 ARV medications from each of ≥3 of the 4 main classes) and who are failing their current regimen (defined as plasma HIV-1 RNA≥400 copies/mL). Participants required oral bridging if an SC injection of LEN was not administered within the protocol visit window.
Participants were enrolled in either of the following two cohorts: • Cohort 1: Randomized in a 2:1 ratio to receive oral LEN or placebo for 14 days starting on Day 1, while they continued their existing regimen; or • Cohort 2: Enrolled to receive oral LEN together with an OBR.

[1] = Safety during oral bridging period, CALIBRATE
Source text: An AE could, therefore, be any unfavorable and/or unintended sign, symptom, or disease temporally associated with the use of a study drug, whether or not considered related to the study drug.
Preexisting events that increased in severity or changed in nature during or as a consequence of participation in the clinical study were also considered AEs.

clinical = conditions: human, in vivo
Source text: The objective of this study was to evaluate the pharmacokinetics (PK) of LEN during oral bridging period (OBP) to assess the adequacy of 300-mg PO once-weekly (QW) regimen for maintaining therapeutic concentrations between missed SC LEN doses. During OBP, sparse PK samples were collected at the start of OBP and every ˜10-12 weeks (without regard to a prespecified time since dose) until SC LEN was resumed. LEN plasma concentrations were summarized during OBP in the CAPELLA (N=57) and CALIBRATE (N=82) studies.
Participants required oral weekly bridging if an SC injection of LEN could not be administered for any reason within the protocol visit window. If 26 to 28 weeks elapsed since the last SC injection, and if clinically appropriate to continue LEN, participants started oral LEN 300 mg (1 tablet) once a week at the oral bridging visit(s) and continued weekly dosing on the same day of the week. If more than 28 weeks elapsed since the last SC injection, and if clinically appropriate to continue LEN, participants restarted the oral lead-in at the oral bridging visits and continued oral weekly dosing on the same day of the week, until SC LEN was administered, as shown in Table 6.
Oral bridging day was calculated from first dose date of Oral Bridging.

[2] = Safety data from all completed and ongoing clinical studies of LEN; assay type: in vivo, human; conditions: oral doses up to 1800 mg
Procedure: Lenacapavir has been administered orally at doses up to 1800 mg. […] Oral LEN was administered without regard to food.

[3] = po, Lower 90% CI of Concentration
[4] = po, Lower 90% CI of LEN concentration

CC(C)(C#Cc1ccc(-c2ccc(Cl)c3c(NS(C)(=O)=O)nn(CC(F)(F)F)c23)c([C@H](Cc2cc(F)cc(F)c2)NC(=O)Cn2nc(C(F)(F)F)c3c2C(F)(F)[C@@H]2C[C@H]32)n1)S(C)(=O)=O [LEN, N—((S)-1-(3-(4-chloro-3-(methylsulfonamido)-1-(2,2,2-trifluoroethyl)-1H-indazol-7-yl)-6-(3-methyl-3-(methylsulfonyl)but-1-yn-1-yl)pyridin-2-yl)-2-(3,5-difluorophenyl)ethyl)-2-((3bS,4aR)-5,5-difluoro-3-(trifluoromethyl)-3b,4,4a,5-tetrahydro-1H-cyclopropa [3,4]cyclopenta [1,2-c]pyrazol-1-yl) acetamide]
CD4 count and CD4% during oral bridging (in words) (HIV-1): continued to increase from oral bridging baseline
Mean (SD) oral bridging baseline CD4 cell count (HIV-1): 356 (261.1) cells/μL
Mean oral bridging baseline CD4 percentage (HIV-1): 17.0%
Percentage who maintained HIV-1 RNA<50 copies/mL (HIV-1; Week 10): 97.8%
Percentage who maintained HIV-1 RNA<50 copies/mL (HIV-1; Week 20): 90.9%
Mean (SD) change from oral bridging baseline in HIV-1 RNA (HIV-1; OB baseline HIV-1 RNA<50, Week 10): 0.00 (0.250) log10 copies/mL
Mean (SD) change from oral bridging baseline in HIV-1 RNA (HIV-1; OB baseline HIV-1 RNA<50, Week 20): −0.01 (0.096) log10 copies/mL
Mean (SD) baseline HIV-1 RNA (HIV-1; OB baseline HIV-1 RNA<50 copies/mL): 1.34 (0.121) log10 copies/mL
Percentage who achieved HIV-1 RNA<50 copies/mL (HIV-1; OB baseline HIV-1 RNA≥50, Missing=Excluded, Week 10): 27.3%
Percentage who achieved HIV-1 RNA<50 copies/mL (HIV-1; OB baseline HIV-1 RNA≥50, Missing=Excluded, Week 20): 50.0%
Percentage who achieved HIV-1 RNA<50 copies/mL (HIV-1; OB baseline HIV-1 RNA≥50, Missing=Failure, Week 10): 27.3%
Percentage who achieved HIV-1 RNA<50 copies/mL (HIV-1; OB baseline HIV-1 RNA≥50, Missing=Failure, Week 20): 40.0%
Mean (SD) change from oral bridging baseline in HIV-1 RNA (HIV-1; OB baseline HIV-1 RNA≥50, Week 10): −0.58 (1.188) log10 copies/mL
Mean (SD) change from oral bridging baseline in HIV-1 RNA (HIV-1; OB baseline HIV-1 RNA≥50, Week 20): −1.05 (0.867) log10 copies/mL
Mean (SD) baseline HIV-1 RNA (HIV-1; OB baseline HIV-1 RNA≥50 copies/mL): 3.43 (1.035) log10 copies/mL
Mean (SD) change from oral bridging baseline in CD4 cell count (HIV-1; Week 10): −16 (114.2) cells/μL
Mean change from oral bridging baseline in CD4 percentage (HIV-1; Week 10): 0.2%
HIV-1 RNA of the 1 participant who did not maintain <50 copies/mL (HIV-1; Week 10, missed 2 nonconsecutive oral doses, N74D): 920 copies/mL
HIV-1 RNA of the 1 participant who did not maintain <50 copies/mL (HIV-1; Week 20): 57 copies/mL
Mean (SD) change from oral bridging baseline in CD4 cell count (HIV-1; Week 20): 12 (71.8) cells/μL
Mean change from oral bridging baseline in CD4 percentage (HIV-1; Week 20): 1.0%
Mean (SD) oral bridging baseline HIV-1 RNA (HIV-1; all who received oral bridging): 1.74 (0.947) log10 copies/mL
Percentage of participants with HIV-1 RNA<50 copies/mL (HIV-1; all who received oral bridging, Missing=Excluded, Week 10): 83.9%
Percentage of participants with HIV-1 RNA<50 copies/mL (HIV-1; all who received oral bridging, Missing=Excluded, Week 20): 91.4%
Percentage of participants with HIV-1 RNA<50 copies/mL (HIV-1; all who received oral bridging, Missing=Failure, Week 10): 83.9%
Percentage of participants with HIV-1 RNA<50 copies/mL (HIV-1; all who received oral bridging, Missing=Failure, Week 20): 84.2%
Mean (SD) change from oral bridging baseline in HIV-1 RNA (HIV-1; all who received oral bridging, Week 10): -0.11 (0.597) log10 copies/mL
Mean (SD) change from oral bridging baseline in HIV-1 RNA (HIV-1; all who received oral bridging, Week 20): −0.16 (0.476) log10 copies/mL
Virologic suppression during oral bridging (in words) (HIV-1; majority of participants suppressed at OB baseline): remained virologically suppressed
Proportion of participants with HIV-1 RNA<50 copies/mL (HIV-1; Missing=Excluded, OB Baseline): 46/46 (100) %
Proportion of participants with HIV-1 RNA<50 copies/mL (HIV-1; Missing=Excluded, OB Week 30): 10/10 (100) %
Changes from oral bridging baseline in blood pressure, pulse, respiration rate, body temperature [1]: no clinically relevant changes from oral bridging baseline
Treatment-related diarrhea ([1]; 1 participant): 1.2%
Grade 3 or higher blood creatine phosphokinase increased ([1]; 2 participants, both in oral LEN group): 1.7%
Participants with Grade 3 events ([1]; LEN total group): 2.5%
Participants with Grade 3 or higher AEs ([1]; LEN total group): 5.0%
Participants with Grade 4 events ([1]; LEN total group): 2.5%
TEAE COVID-19 ([1]; LEN total group): 5.8%
TEAE influenza ([1]; LEN total group): 7.4%
TEAE nasopharyngitis ([1]; LEN total group): 5.0%
TEAE syphilis ([1]; LEN total group): 5.0%
Participants with any AE ([1]; LEN total group (121)): 62.8%
Participants with AEs related to study drug ([1]; LEN total group, all Grade 1): 3.3%
Participants with serious AEs ([1]; LEN total group, not related to study drug): 2.5%
AE oropharyngeal pain ([1]; SC LEN total group): 4.9%
Participants with AEs related to study drug ([1]; SC LEN total group): 3.7%
Participants with Grade 3 events ([1]; SC LEN total group): 1.2%
Participants with Grade 3 or higher AEs ([1]; SC LEN total group): 3.7%
Participants with Grade 4 events ([1]; SC LEN total group): 2.4%
Participants with any AE ([1]; SC LEN total group): 64.6%
Participants with serious AEs ([1]; SC LEN total group): 2.4%
TEAE COVID-19 ([1]; SC LEN total group): 4.9%
TEAE influenza ([1]; SC LEN total group): 8.5%
TEAE nasopharyngitis ([1]; SC LEN total group): 4.9%
TEAE syphilis ([1]; SC LEN total group): 4.9%
Changes from oral bridging baseline in hematology or clinical chemistry ([1]; any treatment group): no clinically relevant changes from oral bridging baseline in median values for hematology or clinical chemistry parameters
AE arthralgia ([1]; oral LEN group): 5.1%
AE blood creatine phosphokinase increase ([1]; oral LEN group): 5.1%
AE dyslipidemia ([1]; oral LEN group): 5.1%
AE oropharyngeal gonococcal infection ([1]; oral LEN group): 5.1%
Participants with AEs related to study drug ([1]; oral LEN group): 2.6%
Participants with Grade 3 events ([1]; oral LEN group): 5.1%
Participants with Grade 3 or higher AEs ([1]; oral LEN group): 7.7%
Participants with Grade 4 events ([1]; oral LEN group): 2.6%
Participants with any AE ([1]; oral LEN group): 59.0%
Participants with serious AEs ([1]; oral LEN group): 2.6%
TEAE COVID-19 ([1]; oral LEN group): 7.7%
TEAE influenza ([1]; oral LEN group): 5.1%
TEAE nasopharyngitis ([1]; oral LEN group): 5.1%
TEAE syphilis ([1]; oral LEN group): 5.1%
AEs leading to premature discontinuation of study drug or study ([1]; oral bridging period): no TEAEs which led to a premature discontinuation of study drug or from the study were reported; also recorded: no AEs that led to premature discontinuation of study drug or from the study were reported
Deaths ([1]; oral bridging period): No deaths were reported
Overall safety and tolerability of oral LEN ([1]; oral bridging period): generally safe and well tolerated
Mean LEN concentration and lower bound 90% CI versus efficacy target IQ4 (clinical): > 15.5 ng/mL
90% CI of mean LEN concentration (clinical; 10 week): 66.1, 86.3
90% CI of mean LEN concentration (clinical; 20 week): 50.4, 99.3
90% CI of mean LEN concentration (clinical; 30 week): 29.9, 53.5
90% CI of mean LEN concentration (clinical; 1 day): 40.3, 51.9
concentration at 10 day (clinical; po, Concentration, Mean (% CV)): 76.2 ng/mL
concentration at 20 day (clinical; po, Concentration, Mean (% CV)): 74.8 ng/mL
concentration at 10 day (clinical; [3]): 66.1 ng/mL
concentration at 20 day (clinical; [3]): 50.4 ng/mL
concentration at 30 day (clinical; [3]): 29.9 ng/mL
concentration at 10 week (clinical; [4]): 66.1 ng/mL
concentration at 20 week (clinical; [4]): 50.4 ng/mL
concentration at 30 week (clinical; [4]): 29.9 ng/mL
concentration at 1 day (clinical; [4]): 40.3 ng/mL
Overall safety and tolerability [2]: generally safe and well tolerated at the intended exposures
